Where a SMILES comes first, the peptide text is derived from it.
How the values were obtained:
[1] = Solubility of the synthesized peptides; assay type: physicochemical
Experimental: Peptide JP1 and others were synthesized by GL Biochem (Shanghai) Ltd. and Hybio Pharmaceutical Co., Ltd. (Shenzhen, China, under standard GMP conditions. Purity >98%, water-soluble. Freeze dried powder is stored for a long time at −20° C.

[2] = system: CNV lesions; settings: mouse, in vivo, ip
Experimental: One week after laser induction, mice with choroidal neovascularization were randomly divided into two groups (10 mice per group), and injected intraperitoneally with 5 mg of FITC-JP1 and 0.99 mg of FITC 100 uL (both groups were injected with equal amounts of FITC intraperitoneally), respectively. The intensity of FITC in the living retina was determined using the FFA method (n=5/group). To evaluate the accumulation of FITC in CNV lesions, mice were euthanized at 1, 3, 8, 24, and 48 h after intraperitoneal injection of FITC-JP1 or FITC, respectively. Then, choroidal spreads were observed by fluorescence microscopy.

[3] = system: streptozotocin (STZ)-induced diabetes mouse model; assay: Streptozotocin-induced diabetes mouse model: retinal vascular density and leakage; assay type: in vivo; settings: STZ diabetic mice, intraocular injection once a week, 4 times; compared to normal mice of the same age
Experimental: C57BL/6 mice (male, 3-5 weeks old) were administered with intraperitoneal injection of streptozotocin (STZ) (7.5 mg/mL; S-0130, Sigma Aldrich, St. Louis, MO, USA), fresh dissolved Na Citrate (CAM) buffer (pH: 4.5-4.7; S4641, Sigma) at a dose of 50 mg/kg, once daily, for 5 consecutive days. After one week, blood sugar ≥300 mg/dL was regarded as the onset of diabetes. Only mice with sustained high sugar for 3 weeks were used for subsequent experiments. […] The blood glucose of mice was measured every month to confirm the status of diabetes. Two months after the onset of diabetes, the mice were randomly divided into four groups with 10 mice in each group. […]
After the mice were anesthetized, 1 mL of PBS containing 40 mg/mL fluorescein isothiocyanate-glucan was perfused into the left ventricle (average mol wt: 2×10^6, Sigma, St Louis, MO, USA). […] Stretched preparation was made, and observe the flat bracket using a fluorescence microscope and take photos. The vascular density of capillary networks was analyzed using Angio Tool image analysis software. […]
Evans blue (45 mg/kg) was injected through the tail vein of mice for more than 10 s. […] Plasma Evans blue concentration was determined by taking 100 uL of blood. […]

Row | solubility [1] | Molecule | accumulation of FITC at CNV lesions (retinal choroidal plain films) [2] | retinal vascular density [3]
1 | water-soluble | N=C(N)NCCC[C@H](NC(=O)[C@H](Cc1ccccc1)NC(=O)[C@H](CCCNC(=N)N)NC(=O)[C@H](CC(=O)O)NC(=O)[C@H](COP(=O)(O)O)NC(=O)CNC(=O)[C@@H]1CCCN1C(=O)[C@@H](N)Cc1ccccc1)C(=O)NCC(=O)N[C@@H](CC(=O)O)C(=O)O [JP1] (HELM PEPTIDE1{F.P.G.[O=C([C@H](COP(=O)(O)O)N[*:1])[*:2]].D.R.F.R.G.D}$$$$V2.0; N-terminus and C-terminus assumed) | enhanced the accumulation of FITC at CNV lesions | 
2 |  | Ranibizumab (antibody, chains of the INN, looked up, V domains shown, Fab, anti-VEGF antibody drug used as positive control) VH: EVQLVESGGGLVQPGGSLRLSCAASGYDFTHYGMNWVRQAPGKGLEWVGWINTYTGEPTYAADFKRRFTFSLDTSKSTAYLQMNSLRAEDTAVYYCAKYPYYYGTSHWYFDVWGQGTLVTVSS VL: DIQLTQSPSSLSASVGDRVTITCSASQDISNYLNWYQQKPGKAPKVLIYFTSSLHSGVPSRFSGSGSGTDFTLTISSLQPEDFATYYCQQYSTVPWTFGQGTKVEIK |  | no significant decrease in retinal vascular density
